Activity calls are given as the source filed them. For most assays here, no stated cut-off is given here; in the data, actives have a measured IC50 and inactives only a lower limit.
Key:
[1] = target: E3 ubiquitin-protein ligase XIAP (Homo sapiens, UniProt P98170); assay: Counter Screen using XIAP-Bir3 for Chemical Antagonists of Bir1/2 domains of IAP-family anti-apoptotic proteins. [Related pubchem assays (depositor defined):AID1018, AID1449, AID1514, AID1638, AID1749, AID1750, AID488957, AID488963]
[2] = target: T1, Bcl-2-related protein A1 (Mus musculus, UniProt Q07440); format: functional;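 further: confirmatory dose–response counterscreen on Bfl-1, used to check hits from a UBC13 polyubiquitin inhibitor campaign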
T1 sequence (Q07440 whole entry): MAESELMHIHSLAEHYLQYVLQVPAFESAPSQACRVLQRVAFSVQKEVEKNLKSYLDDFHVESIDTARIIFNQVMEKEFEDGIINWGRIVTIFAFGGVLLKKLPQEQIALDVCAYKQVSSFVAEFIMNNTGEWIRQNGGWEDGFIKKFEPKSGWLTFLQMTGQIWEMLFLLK

[3] = target: T2, Ubiquitin-conjugating enzyme E2 N (Homo sapiens, UniProt P61088); format: functional
T2 sequence (P61088 whole entry): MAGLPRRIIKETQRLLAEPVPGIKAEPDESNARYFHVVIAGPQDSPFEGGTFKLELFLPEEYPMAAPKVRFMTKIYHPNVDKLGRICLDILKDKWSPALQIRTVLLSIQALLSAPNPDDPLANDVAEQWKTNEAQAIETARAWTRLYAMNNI

[4] = target: T2, Ubiquitin-conjugating enzyme E2 N; format: functional; remark: listed apart in the source
[5] = target: T3, Hexokinase (Trypanosoma brucei, UniProt Q38C41); assay: Confirmation assay for inhibitors of Trypanosoma brucei hexokinase 1-Analogue-first series. [Related pubchem assays (depositor defined):AID1430, AID1632, AID2516, AID2560, AID2579, AID2600, AID449725, AID492951]; format: functional
T3 sequence (Q38C41 whole entry): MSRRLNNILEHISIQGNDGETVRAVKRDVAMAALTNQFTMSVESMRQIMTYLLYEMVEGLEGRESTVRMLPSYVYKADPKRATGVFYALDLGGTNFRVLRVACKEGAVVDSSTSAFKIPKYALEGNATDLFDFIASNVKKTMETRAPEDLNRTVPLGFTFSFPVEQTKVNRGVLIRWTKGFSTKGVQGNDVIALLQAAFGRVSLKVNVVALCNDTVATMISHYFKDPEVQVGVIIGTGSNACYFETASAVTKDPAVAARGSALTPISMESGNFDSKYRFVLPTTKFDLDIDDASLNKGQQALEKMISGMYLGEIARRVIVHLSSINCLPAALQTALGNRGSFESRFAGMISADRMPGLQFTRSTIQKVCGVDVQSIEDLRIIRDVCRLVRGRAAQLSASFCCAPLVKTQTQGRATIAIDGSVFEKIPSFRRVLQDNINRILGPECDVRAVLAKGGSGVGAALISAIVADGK

[6] = target: Glucose-6-phosphate 1-dehydrogenase (Homo sapiens, UniProt P11413); assay: inhibition of Homo sapiens G6PD, dose series – biochemical, fluorescence, selectivity assay for P. falciparum G6PD inhibitor project, dose response (AID 504792); format: functional
[7] = viability loss in HeLa cells – cytotoxicity control for MgcRacGAP inhibitor project, dose response (AID 624300); format: functional
[8] = target: T4, Rac GTPase-activating protein 1 (Homo sapiens, UniProt Q9H0H5); assay: blockers of MgcRacGAP-driven Rac1 GTP hydrolysis – biochemical, ADP Hunter fluorescence, primary and confirmatory, confirmation (AID 624330); format: functional
T4 sequence (Q9H0H5 whole entry): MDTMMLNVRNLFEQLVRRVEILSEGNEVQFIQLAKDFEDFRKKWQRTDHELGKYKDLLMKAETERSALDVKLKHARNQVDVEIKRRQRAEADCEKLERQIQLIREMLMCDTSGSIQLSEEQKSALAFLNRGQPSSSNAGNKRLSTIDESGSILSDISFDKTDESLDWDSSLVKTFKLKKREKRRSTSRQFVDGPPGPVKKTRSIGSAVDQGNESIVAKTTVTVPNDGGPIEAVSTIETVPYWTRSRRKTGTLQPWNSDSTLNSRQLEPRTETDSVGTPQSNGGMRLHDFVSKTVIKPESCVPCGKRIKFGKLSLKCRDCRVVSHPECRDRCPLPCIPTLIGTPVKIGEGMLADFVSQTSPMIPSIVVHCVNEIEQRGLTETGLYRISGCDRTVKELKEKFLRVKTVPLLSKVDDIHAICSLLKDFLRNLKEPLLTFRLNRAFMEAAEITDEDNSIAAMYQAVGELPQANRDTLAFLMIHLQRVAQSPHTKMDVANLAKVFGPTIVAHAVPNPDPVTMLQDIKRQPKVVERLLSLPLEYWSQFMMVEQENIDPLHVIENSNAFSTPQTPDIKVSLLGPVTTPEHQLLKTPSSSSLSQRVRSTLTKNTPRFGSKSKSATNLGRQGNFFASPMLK

[9] = target: Delta-type opioid receptor (Homo sapiens, UniProt P41143); assay: Counterscreen for agonists of heterodimerization of the mu 1 (OPRM1) and delta 1 (OPRD1) opioid receptors: Luminescence-based cell-based high throughput dose response assay to identify agonists of OPRD1 homodimerization. [Related pubchem assays (depositor defined):AID504326, AID504355, AID504692, AID504904, AID504905]; format: functional
[10] = target: Mu-type opioid receptor (Homo sapiens, UniProt P35372); assay: Counterscreen for agonists of heterodimerization of the mu 1 (OPRM1) and delta 1 (OPRD1) opioid receptors: Luminescence-based cell-based high throughput dose response assay to identify agonists of OPRM1 homodimerization.; format: functional;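 further: U2OS cells expressing OPRM1 and beta-arrestin as split beta-galactosidase partners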
[11] = target: 5-hydroxytryptamine receptor 5A (Homo sapiens, UniProt P47898); assay: Counterscreen for agonists of OPRM1-OPRD1 heterodimerization: luminescence-based cell-based high throughput dose response assay to identify agonists of 5-hydroxytryptamine (serotonin) 5A receptor (HTR5A). [Related pubchem assays (depositor defined):AID504326, AID504355, AID504692, AID504904, AID504905]; format: functional
[12] = target: T5, Tyrosine-protein phosphatase non-receptor type 22 (Homo sapiens, UniProt Q9Y2R2); assay: SAR LYP1 Fluorescent Assay using pCAP substrate for In Vitro dose response studies - Set 2. [Related pubchem assays (depositor defined):AID1779, AID1784, AID2135, AID449727]; format: functional
T5 sequence (Q9Y2R2 whole entry): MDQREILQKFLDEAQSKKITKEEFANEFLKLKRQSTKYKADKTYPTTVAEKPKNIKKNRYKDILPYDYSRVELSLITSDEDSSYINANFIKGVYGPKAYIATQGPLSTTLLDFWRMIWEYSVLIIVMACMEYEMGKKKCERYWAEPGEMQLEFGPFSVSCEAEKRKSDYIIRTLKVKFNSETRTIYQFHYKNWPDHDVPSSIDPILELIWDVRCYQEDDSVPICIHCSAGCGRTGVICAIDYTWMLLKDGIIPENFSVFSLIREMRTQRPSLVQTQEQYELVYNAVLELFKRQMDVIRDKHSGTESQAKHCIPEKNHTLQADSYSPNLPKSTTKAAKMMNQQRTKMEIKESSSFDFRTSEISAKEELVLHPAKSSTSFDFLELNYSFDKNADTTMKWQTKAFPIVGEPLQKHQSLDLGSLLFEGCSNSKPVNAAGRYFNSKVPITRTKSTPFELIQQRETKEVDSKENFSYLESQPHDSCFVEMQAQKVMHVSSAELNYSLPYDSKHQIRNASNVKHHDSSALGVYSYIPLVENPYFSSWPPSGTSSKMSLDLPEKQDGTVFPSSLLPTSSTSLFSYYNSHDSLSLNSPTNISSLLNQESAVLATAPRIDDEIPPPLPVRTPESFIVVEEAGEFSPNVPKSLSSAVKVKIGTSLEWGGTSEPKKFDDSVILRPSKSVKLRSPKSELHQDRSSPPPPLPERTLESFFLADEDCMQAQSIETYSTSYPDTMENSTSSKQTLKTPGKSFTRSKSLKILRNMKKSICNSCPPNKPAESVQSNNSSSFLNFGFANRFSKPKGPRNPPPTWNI

[13] = target: T6, Tyrosine-protein phosphatase non-receptor type 12 (Homo sapiens, UniProt Q05209); assay: SAR Selectivity Analysis of small molecule inhibitors of PEST using pCAP in a fluorescence assay. [Related pubchem assays (depositor defined):AID1779, AID1784, AID2135]; format: functional
T6 sequence (Q05209 whole entry): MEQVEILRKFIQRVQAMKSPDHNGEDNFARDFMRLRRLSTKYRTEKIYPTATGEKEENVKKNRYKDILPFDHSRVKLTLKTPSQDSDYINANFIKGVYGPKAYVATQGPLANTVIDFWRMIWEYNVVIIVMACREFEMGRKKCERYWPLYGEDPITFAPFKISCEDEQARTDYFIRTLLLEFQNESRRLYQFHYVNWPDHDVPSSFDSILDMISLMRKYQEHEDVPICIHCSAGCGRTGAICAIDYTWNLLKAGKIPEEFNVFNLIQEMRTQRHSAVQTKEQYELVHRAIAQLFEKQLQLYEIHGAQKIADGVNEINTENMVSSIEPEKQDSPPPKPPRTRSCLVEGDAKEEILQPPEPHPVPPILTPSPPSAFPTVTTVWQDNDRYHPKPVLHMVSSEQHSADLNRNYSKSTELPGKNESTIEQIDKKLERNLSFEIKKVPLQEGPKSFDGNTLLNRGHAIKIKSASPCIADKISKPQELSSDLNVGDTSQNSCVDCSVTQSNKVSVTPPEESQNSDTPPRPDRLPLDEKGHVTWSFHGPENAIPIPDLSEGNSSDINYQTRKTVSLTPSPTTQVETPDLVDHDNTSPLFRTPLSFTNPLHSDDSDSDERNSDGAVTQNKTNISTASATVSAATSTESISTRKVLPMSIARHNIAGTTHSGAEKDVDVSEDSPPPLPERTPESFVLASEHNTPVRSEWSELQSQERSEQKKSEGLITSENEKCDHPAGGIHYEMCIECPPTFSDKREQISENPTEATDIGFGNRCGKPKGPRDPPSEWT

[14] = target: T5, Tyrosine-protein phosphatase non-receptor type 22; assay: SAR LYP1 Fluorescent Assay using OMFP substrate for In Vitro dose response studies - Set 3. [Related pubchem assays (depositor defined):AID1779, AID1784, AID2140, AID2686]; format: functional
[15] = target: T7, Tyrosine-protein phosphatase non-receptor type 7 (Homo sapiens, UniProt P35236); assay: inhibition of hematopoietic tyrosine phosphatase HePTP – biochemical, set 2, SAR follow-up (AID 449736); format: functional
T7 sequence (P35236 whole entry): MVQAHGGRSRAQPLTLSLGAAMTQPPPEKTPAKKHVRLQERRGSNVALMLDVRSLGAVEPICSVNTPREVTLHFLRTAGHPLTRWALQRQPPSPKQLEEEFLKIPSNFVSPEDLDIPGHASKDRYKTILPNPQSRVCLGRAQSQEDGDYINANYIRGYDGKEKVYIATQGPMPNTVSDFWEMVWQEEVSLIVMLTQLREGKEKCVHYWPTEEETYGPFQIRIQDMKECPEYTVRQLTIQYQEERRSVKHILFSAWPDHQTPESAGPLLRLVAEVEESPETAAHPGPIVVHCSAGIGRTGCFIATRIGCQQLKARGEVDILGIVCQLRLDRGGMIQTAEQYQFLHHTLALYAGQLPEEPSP

[16] = target: T5, Tyrosine-protein phosphatase non-receptor type 22; assay: inhibition of lymphoid tyrosine phosphatase LYP – biochemical, pCAP fluorogenic substrate, fluorescence, set 3, SAR follow-up (AID 449727); format: functional
[17] = target: T5, Tyrosine-protein phosphatase non-receptor type 22; assay: SAR LYP1 Fluorescent Assay using OMFP substrate for In Vitro dose response studies - Set 2. [Related pubchem assays (depositor defined):AID1779, AID1784, AID2140, AID449726, AID488869]; format: functional

Chain of 5-hydroxytryptamine receptor 5A (P47898 whole entry): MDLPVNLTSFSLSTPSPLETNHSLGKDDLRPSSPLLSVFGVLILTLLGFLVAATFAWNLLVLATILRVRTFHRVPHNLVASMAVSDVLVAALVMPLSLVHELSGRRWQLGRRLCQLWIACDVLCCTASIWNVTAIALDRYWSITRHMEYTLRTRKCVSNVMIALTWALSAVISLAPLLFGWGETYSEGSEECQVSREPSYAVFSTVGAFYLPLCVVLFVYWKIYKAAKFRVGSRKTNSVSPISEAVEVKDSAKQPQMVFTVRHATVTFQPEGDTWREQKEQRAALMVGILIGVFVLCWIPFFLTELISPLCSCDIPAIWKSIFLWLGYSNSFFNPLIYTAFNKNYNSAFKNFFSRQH
Chain of Mu-type opioid receptor (P35372 whole entry): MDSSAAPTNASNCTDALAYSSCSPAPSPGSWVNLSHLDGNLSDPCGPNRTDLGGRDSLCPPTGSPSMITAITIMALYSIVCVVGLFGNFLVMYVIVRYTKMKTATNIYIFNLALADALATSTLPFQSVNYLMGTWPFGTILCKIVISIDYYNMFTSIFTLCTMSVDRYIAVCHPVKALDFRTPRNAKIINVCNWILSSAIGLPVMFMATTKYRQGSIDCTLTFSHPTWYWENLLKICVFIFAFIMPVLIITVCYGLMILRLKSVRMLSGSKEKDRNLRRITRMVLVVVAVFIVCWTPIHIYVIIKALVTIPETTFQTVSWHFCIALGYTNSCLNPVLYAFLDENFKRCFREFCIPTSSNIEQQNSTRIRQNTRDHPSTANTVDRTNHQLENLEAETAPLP
Chain of E3 ubiquitin-protein ligase XIAP (P98170 whole entry): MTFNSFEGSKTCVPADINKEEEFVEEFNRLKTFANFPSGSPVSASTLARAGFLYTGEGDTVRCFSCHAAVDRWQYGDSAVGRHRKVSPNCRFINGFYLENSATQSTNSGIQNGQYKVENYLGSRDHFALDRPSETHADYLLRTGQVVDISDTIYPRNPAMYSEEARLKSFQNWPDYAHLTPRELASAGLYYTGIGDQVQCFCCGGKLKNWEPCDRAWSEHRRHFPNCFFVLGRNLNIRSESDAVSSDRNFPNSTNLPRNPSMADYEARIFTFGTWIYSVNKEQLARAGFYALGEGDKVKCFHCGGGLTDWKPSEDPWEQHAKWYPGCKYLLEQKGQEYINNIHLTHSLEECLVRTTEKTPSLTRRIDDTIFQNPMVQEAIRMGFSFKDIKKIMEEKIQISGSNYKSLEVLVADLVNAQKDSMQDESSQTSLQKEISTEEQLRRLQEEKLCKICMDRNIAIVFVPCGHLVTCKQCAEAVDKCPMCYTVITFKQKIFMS
Chain of Glucose-6-phosphate 1-dehydrogenase (P11413 whole entry): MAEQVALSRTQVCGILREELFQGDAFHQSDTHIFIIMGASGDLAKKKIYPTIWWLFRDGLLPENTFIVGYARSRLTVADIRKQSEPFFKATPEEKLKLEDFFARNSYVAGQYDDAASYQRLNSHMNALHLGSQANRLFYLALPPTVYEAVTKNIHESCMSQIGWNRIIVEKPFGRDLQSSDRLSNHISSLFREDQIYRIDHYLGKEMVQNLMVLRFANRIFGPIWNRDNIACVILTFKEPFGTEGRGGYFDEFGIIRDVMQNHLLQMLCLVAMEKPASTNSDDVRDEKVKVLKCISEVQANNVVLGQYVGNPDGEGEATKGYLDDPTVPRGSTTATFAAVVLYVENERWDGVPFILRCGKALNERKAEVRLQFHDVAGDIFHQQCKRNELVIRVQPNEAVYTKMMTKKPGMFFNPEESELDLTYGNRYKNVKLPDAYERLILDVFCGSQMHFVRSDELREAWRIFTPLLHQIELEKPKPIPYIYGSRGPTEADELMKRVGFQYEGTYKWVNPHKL
Chain of Delta-type opioid receptor (P41143 whole entry): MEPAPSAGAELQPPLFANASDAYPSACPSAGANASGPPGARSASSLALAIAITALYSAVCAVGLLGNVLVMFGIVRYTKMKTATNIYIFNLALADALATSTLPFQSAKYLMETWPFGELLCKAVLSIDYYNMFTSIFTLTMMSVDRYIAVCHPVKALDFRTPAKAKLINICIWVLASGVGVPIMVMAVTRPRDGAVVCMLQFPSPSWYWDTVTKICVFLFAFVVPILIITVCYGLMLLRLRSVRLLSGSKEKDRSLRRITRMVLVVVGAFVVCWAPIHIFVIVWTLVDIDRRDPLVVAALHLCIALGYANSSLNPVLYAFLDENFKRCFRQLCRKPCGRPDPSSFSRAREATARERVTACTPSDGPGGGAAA

| IC50 [12] | IC50 [13] | IC50 [14] | IC50 [15] | IC50 [16] | IC50 [17] | Compound | IC50 [5] | further results |
| --- | --- | --- | --- | --- | --- | --- | --- | --- |
|  |  |  |  |  |  | O=c1[nH]c(-c2ccc(F)cc2)nc2c1sc(=S)n2-c1ccccc1 |  | IC50 [1]: > 20 µM (inactive) |
|  |  |  |  |  |  | CCOc1ccc(NC(=O)Cn2c(=O)n(CCCC(=O)NC3CCN(Cc4ccccc4)CC3)c(=O)c3ccccc32)cc1 |  | IC50 [2]: > 20 µM (inactive); IC50 [3]: 5.27 µM (active); IC50 [4]: 5.19 µM (active) |
|  |  |  |  |  |  | CN(C)CCCN(C(=O)c1ccc(S(=O)(=O)N2CCCCC2)cc1)c1nc2cc3c(cc2s1)OCO3 |  | IC50 [2]: > 20 µM (inactive); IC50 [3]: 12.7 µM (active); IC50 [4]: > 20 µM (inactive) |
|  |  |  |  |  |  | O=c1c2ccccc2sn1-c1ccc(Cl)cc1Cl | 5.03 µM (active) | IC50 [6]: 17 µM (active); CC50 [7]: 74.7 µM (active); IC50 [8]: 31.8 µM (active) |
|  |  |  |  |  |  | CCN1CCN(S(=O)(=O)c2ccc(Cl)c(C(=O)N(CCc3ccccc3)Cc3ccccc3)c2)CC1 |  | EC50 [9]: > 92.5 µM (inactive); EC50 [10]: > 92.5 µM (inactive); EC50 [11]: > 92.5 µM (inactive) |
| 3.68 µM (active) | 0.953 µM (active) | 3.06 µM (active) | 0.394 µM (active) | 3.49 µM (active) | 4.04 µM (active) | COc1cc(/C=C2/SC(=S)N(c3cccc(C(=O)O)c3)C2=O)ccc1OCc1ccc(Cl)cc1 |  |  |
| 12.2 µM (active) | 2.81 µM (active) | 62.8 µM (active) | 3.81 µM (active) | 20.4 µM (active) | 14.6 µM (active) | COc1cc(/C=C2/SC(=S)N(c3cccc(C(=O)O)c3)C2=O)cc(Cl)c1OCc1cccc(C(=O)O)c1 |  |  |
| > 100 µM (inactive) | > 100 µM (inactive) | > 100 µM (inactive) | 60.8 µM (active) | > 100 µM (inactive) | 95.3 µM (active) | CCOc1ccc(/C=N/NC(=O)c2ccc(-c3csc(Nc4ccc(C)cc4)n3)cc2)cc1OCC |  |  |
|  |  |  |  |  |  | COc1ccc(C(=O)Nc2cc(C(F)(F)F)ccc2C(=O)O)cc1 | 17 µM (active) |  |
|  |  |  |  |  |  | O=c1c2ccccc2sn1-c1cccc(F)c1 | 1.82 µM (active) |  |
